Data taken from US12077503B2, “Substituted cyclic amides and their use as herbicides” (FMC CORPORATION, priority 2015, dated 2024).

How the values were obtained:
Type in all cases: in vivo
[1] = tested on: barnyardgrass (Echinochloa crus-galli); experiment: Test G Pre-Emergence Protocol; details: Echinochloa crus-galli, pre-emergence, 312 h, evaluated after 13 days; for pest or weed control at 15.625 g/ha: 15.625 g ai/ha; for pest or weed control at 15.625 g/ha / pest or weed control at 250 g/ha: read-out: Barnyardgrass damage rating (100=total damage to plant; 0=no damage to plant); for pest or weed control at 62.5 g/ha: 62.5 g ai/ha, 100=total damage to plant, 0=no damage to plant, read-out: Barnyardgrass damage rating; for pest or weed control at 250 g/ha: 250 g ai/ha
How it was run: (§1)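 Seeds were sown in standard soil and kept one day in a glasshouse (24/16° C day/night, 14 h light, 65% humidity), then sprayed with compound in acetone/water (50:50) containing 0.5% Tween 20 at 15.625, 62.5 or 250 g/ha. Damage was scored after 13 days (0 = none, 100 = total).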

[2] = tested on: corn (Zea mays); experiment: Test G Pre-Emergence Protocol; details: Zea mays, pre-emergence, 312 h, evaluated after 13 days; for plant injury at 15.625 g/ha: 15.625 g ai/ha; for plant injury at 15.625 g/ha / plant injury at 250 g/ha: read-out: Corn damage rating (100=total damage to plant; 0=no damage to plant); for plant injury at 62.5 g/ha: 62.5 g ai/ha, 100=total damage to plant, 0=no damage to plant, read-out: Corn damage rating; for plant injury at 250 g/ha: 250 g ai/ha
How it was run: as §1

[3] = tested on: giant foxtail (Setaria faberi); experiment: Test G Pre-Emergence Protocol; details: Setaria faberi, pre-emergence, 312 h, evaluated after 13 days; for pest or weed control at 15.625 g/ha: 15.625 g ai/ha; for pest or weed control at 15.625 g/ha / pest or weed control at 250 g/ha: read-out: Foxtail, Giant damage rating (100=total damage to plant; 0=no damage to plant); for pest or weed control at 62.5 g/ha: 62.5 g ai/ha, 100=total damage to plant, 0=no damage to plant, read-out: Foxtail, Giant damage rating; for pest or weed control at 250 g/ha: 250 g ai/ha
How it was run: as §1

[4] = tested on: ivy-leaved morning glory (Ipomoea hederacea); experiment: Test G Pre-Emergence Protocol; details: Ipomoea, pre-emergence, 312 h, evaluated after 13 days; for pest or weed control at 15.625 g/ha: 15.625 g ai/ha; for pest or weed control at 15.625 g/ha / pest or weed control at 250 g/ha: read-out: Morningglory, Ivy-leaved damage rating (100=total damage to plant; 0=no damage to plant); for pest or weed control at 62.5 g/ha: 62.5 g ai/ha, 100=total damage to plant, 0=no damage to plant, read-out: Morningglory, Ivy-leaved damage rating; for pest or weed control at 250 g/ha: 250 g ai/ha
How it was run: as §1

[5] = tested on: redroot pigweed (Amaranthus retroflexus); experiment: Test G Pre-Emergence Protocol; details: Amaranthus retroflexus, pre-emergence, 312 h, evaluated after 13 days; for pest or weed control at 15.625 g/ha: 15.625 g ai/ha; for pest or weed control at 15.625 g/ha / pest or weed control at 250 g/ha: read-out: Pigweed, Redroot damage rating (100=total damage to plant; 0=no damage to plant); for pest or weed control at 62.5 g/ha: 62.5 g ai/ha, 100=total damage to plant, 0=no damage to plant, read-out: Pigweed, Redroot damage rating; for pest or weed control at 250 g/ha: 250 g ai/ha
How it was run: as §1

[6] = tested on: velvetleaf (Abutilon theophrasti); experiment: Test G Pre-Emergence Protocol; details: Abutilon theophrasti, pre-emergence, 312 h, evaluated after 13 days; for pest or weed control at 15.625 g/ha: 15.625 g ai/ha; for pest or weed control at 15.625 g/ha / pest or weed control at 250 g/ha: read-out: Velvetleaf damage rating (100=total damage to plant; 0=no damage to plant); for pest or weed control at 62.5 g/ha: 62.5 g ai/ha, 100=total damage to plant, 0=no damage to plant, read-out: Velvetleaf damage rating; for pest or weed control at 250 g/ha: 250 g ai/ha
How it was run: as §1

[7] = tested on: barnyardgrass (Echinochloa crus-galli); experiment: Test G Post-Emergence Protocol; details: Echinochloa crus-galli, post-emergence, 312 h, read-out: Barnyardgrass damage rating; for pest or weed control at 15.625 g/ha: 15.625 g ai/ha, evaluated after 13 days (100=total damage to plant; 0=no damage to plant); for pest or weed control at 62.5 g/ha: 62.5 g ai/ha; for pest or weed control at 62.5 g/ha / pest or weed control at 250 g/ha: evaluated after 13 days, 100=total damage to plant, 0=no damage to plant; for pest or weed control at 250 g/ha: 250 g ai/ha
How it was run: (§2)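 Pot-grown seedlings, 8 days old, raised in a glasshouse at 24/16 °C day/night with 14 h light and 65% humidity, were sprayed post-emergence with test compound in acetone/water (50:50) plus 0.5% Tween 20 at 15.625, 62.5 or 250 g/ha. Damage was scored visually 13 days later on a 0–100 scale (100 = total damage).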

[8] = tested on: corn (Zea mays); experiment: Test G Post-Emergence Protocol; details: Zea mays, post-emergence, 312 h, read-out: Corn damage rating; for plant injury at 15.625 g/ha: 15.625 g ai/ha, evaluated after 13 days (100=total damage to plant; 0=no damage to plant); for plant injury at 62.5 g/ha: 62.5 g ai/ha; for plant injury at 62.5 g/ha / plant injury at 250 g/ha: evaluated after 13 days, 100=total damage to plant, 0=no damage to plant; for plant injury at 250 g/ha: 250 g ai/ha
How it was run: as §2

[9] = tested on: giant foxtail (Setaria faberi); experiment: Test G Post-Emergence Protocol; details: Setaria faberi, post-emergence, 312 h, read-out: Foxtail, Giant damage rating; for pest or weed control at 15.625 g/ha: 15.625 g ai/ha, evaluated after 13 days (100=total damage to plant; 0=no damage to plant); for pest or weed control at 62.5 g/ha: 62.5 g ai/ha; for pest or weed control at 62.5 g/ha / pest or weed control at 250 g/ha: evaluated after 13 days, 100=total damage to plant, 0=no damage to plant; for pest or weed control at 250 g/ha: 250 g ai/ha
How it was run: as §2

[10] = tested on: ivy-leaved morning glory (Ipomoea hederacea); experiment: Test G Post-Emergence Protocol; details: Ipomoea, post-emergence, 312 h, read-out: Morningglory, Ivy-leaved damage rating; for pest or weed control at 15.625 g/ha: 15.625 g ai/ha, evaluated after 13 days (100=total damage to plant; 0=no damage to plant); for pest or weed control at 62.5 g/ha: 62.5 g ai/ha; for pest or weed control at 62.5 g/ha / pest or weed control at 250 g/ha: evaluated after 13 days, 100=total damage to plant, 0=no damage to plant; for pest or weed control at 250 g/ha: 250 g ai/ha
How it was run: as §2

[11] = tested on: redroot pigweed (Amaranthus retroflexus); experiment: Test G Post-Emergence Protocol; details: Amaranthus retroflexus, post-emergence, 312 h, read-out: Pigweed, Redroot damage rating; for pest or weed control at 15.625 g/ha: 15.625 g ai/ha, evaluated after 13 days (100=total damage to plant; 0=no damage to plant); for pest or weed control at 62.5 g/ha: 62.5 g ai/ha; for pest or weed control at 62.5 g/ha / pest or weed control at 250 g/ha: evaluated after 13 days, 100=total damage to plant, 0=no damage to plant; for pest or weed control at 250 g/ha: 250 g ai/ha
How it was run: as §2

[12] = tested on: velvetleaf (Abutilon theophrasti); experiment: Test G Post-Emergence Protocol; details: Abutilon theophrasti, post-emergence, 312 h, read-out: Velvetleaf damage rating; for pest or weed control at 15.625 g/ha: 15.625 g ai/ha, evaluated after 13 days (100=total damage to plant; 0=no damage to plant); for pest or weed control at 62.5 g/ha: 62.5 g ai/ha; for pest or weed control at 62.5 g/ha / pest or weed control at 250 g/ha: evaluated after 13 days, 100=total damage to plant, 0=no damage to plant; for pest or weed control at 250 g/ha: 250 g ai/ha
How it was run: as §2

SMILES	pest or weed control at 15.625 g/ha [1] [%]	pest or weed control at 62.5 g/ha [1] [%]	pest or weed control at 250 g/ha [1] [%]	plant injury at 15.625 g/ha [2] [%]	plant injury at 62.5 g/ha [2] [%]	plant injury at 250 g/ha [2] [%]	pest or weed control at 15.625 g/ha [3] [%]	pest or weed control at 62.5 g/ha [3] [%]	pest or weed control at 250 g/ha [3] [%]	pest or weed control at 15.625 g/ha [4] [%]	pest or weed control at 62.5 g/ha [4] [%]	pest or weed control at 250 g/ha [4] [%]	pest or weed control at 15.625 g/ha [5] [%]	pest or weed control at 62.5 g/ha [5] [%]	pest or weed control at 250 g/ha [5] [%]	pest or weed control at 15.625 g/ha [6] [%]	pest or weed control at 62.5 g/ha [6] [%]	pest or weed control at 250 g/ha [6] [%]	pest or weed control at 15.625 g/ha [7] [%]	pest or weed control at 62.5 g/ha [7] [%]	also measured
CN1C[C@@H](c2cccc(I)c2)[C@H](C(=O)Nc2cccc(F)c2F)C1=O (racemic) [Compound 1754]	60	80	90	0	0	80	80	90	90	0	0	10	10	20	60	10	0	30	30	70	pest or weed control at 250 g/ha [7]: 80%; plant injury at 15.625 g/ha [8]: 10%; plant injury at 62.5 g/ha [8]: 60%; plant injury at 250 g/ha [8]: 70%; pest or weed control at 15.625 g/ha [9]: 60%; pest or weed control at 62.5 g/ha [9]: 80%; pest or weed control at 15.625 g/ha [10]: 30%; pest or weed control at 62.5 g/ha [10]: 70%; pest or weed control at 250 g/ha [10]: 70%; pest or weed control at 15.625 g/ha [11]: 0%; pest or weed control at 62.5 g/ha [11]: 40%; pest or weed control at 250 g/ha [11]: 70%; pest or weed control at 15.625 g/ha [12]: 10%; pest or weed control at 62.5 g/ha [12]: 30%; pest or weed control at 250 g/ha [12]: 60%
CN1C[C@H](c2cccc(C(F)(F)F)c2)[C@@H](C(=O)Nc2cnccc2C#N)C1=O (racemic) [Compound 1761]	0	30	70	0	0	0	0	40	70	0	0	0	0	0	0	0	0	0	0	0	pest or weed control at 250 g/ha [7]: 70%; plant injury at 15.625 g/ha [8]: 0%; plant injury at 62.5 g/ha [8]: 0%; plant injury at 250 g/ha [8]: 0%; pest or weed control at 15.625 g/ha [9]: 0%; pest or weed control at 62.5 g/ha [9]: 0%; pest or weed control at 250 g/ha [9]: 70%; pest or weed control at 15.625 g/ha [10]: 0%; pest or weed control at 62.5 g/ha [10]: 40%; pest or weed control at 250 g/ha [10]: 50%; pest or weed control at 15.625 g/ha [11]: 0%; pest or weed control at 62.5 g/ha [11]: 0%; pest or weed control at 250 g/ha [11]: 10%; pest or weed control at 15.625 g/ha [12]: 0%; pest or weed control at 62.5 g/ha [12]: 0%; pest or weed control at 250 g/ha [12]: 10%
COc1cc(C)cc([C@@H]2CN(C)C(=O)[C@H]2C(=O)Nc2cccc(F)c2C)c1 (racemic) [Compound 1791]	70	80	90	20	70	80	80	90	90	10	20	80	0	0	10	0	10	40	70	80	pest or weed control at 250 g/ha [7]: 80%; plant injury at 15.625 g/ha [8]: 30%; plant injury at 62.5 g/ha [8]: 70%; plant injury at 250 g/ha [8]: 80%; pest or weed control at 15.625 g/ha [9]: 80%; pest or weed control at 62.5 g/ha [9]: 80%; pest or weed control at 250 g/ha [9]: 80%; pest or weed control at 15.625 g/ha [10]: 20%; pest or weed control at 62.5 g/ha [10]: 70%; pest or weed control at 250 g/ha [10]: 70%; pest or weed control at 15.625 g/ha [11]: 0%; pest or weed control at 62.5 g/ha [11]: 0%; pest or weed control at 250 g/ha [11]: 0%; pest or weed control at 15.625 g/ha [12]: 10%; pest or weed control at 62.5 g/ha [12]: 30%; pest or weed control at 250 g/ha [12]: 20%
